From patent publication US20130102595A1 (Curis, Inc., priority 2011, published 2013)

Legend:
[1] = target: T1, mTor serine/threonine protein kinase (Homo sapiens, UniProt P42345); assay: mTor kinase radioisotope assay; assay type: biochemical; conditions: 70 uM ATP, 40 minutes; read-out: m-TOR IC50
T1 construct: FLAG; made in house; host or cells: Baculovirus expression system in Sf21 cells
Procedure, shortened: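 FLAG-tagged full-length recombinant human mTor from baculovirus/Sf21, incubated with p70S6K C-terminal fragment (2 mg/ml) and 70 uM ATP plus 33P-ATP tracer in 50 mM HEPES pH 7.5, 3 mM MnCl2, 40 min at room temperature. Phosphoric acid stop, filtermat capture, scintillation counting; IC50 from sigmoidal dose-response fit.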

H2122 = assay: Cell proliferation assay (CellTiter-Glo); assay type: cell-based; conditions: Homo sapiens, NCI-H2122; NSCLC; 72 hours, 0.5% fetal bovine serum; read-out: antiproliferative activity IC50, H2122
Procedure, shortened: (§1)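 Cells seeded at 5,000 to 10,000 per well were exposed to a range of compound concentrations for 72 hours in 0.5% fetal bovine serum. Growth inhibition was then determined from ATP content by luciferase luminescence after a 30-minute lysis incubation.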

T-84 = assay: Cell proliferation assay (CellTiter-Glo); assay type: cell-based; conditions: Homo sapiens, T84; Colon; 72 hours, 0.5% fetal bovine serum; read-out: antiproliferative activity IC50, T-84
Procedure, shortened: as §1

OPM-2 = assay: Cell proliferation assay (CellTiter-Glo); assay type: cell-based; conditions: Homo sapiens, Multiple Myeloma, 72 hours, 0.5% fetal bovine serum, read-out: antiproliferative activity IC50, OPM-2
Procedure, shortened: as §1

SW1990 = assay: Cell proliferation assay (CellTiter-Glo); assay type: cell-based; conditions: Homo sapiens, Pancreas, 72 hours, 0.5% fetal bovine serum, read-out: antiproliferative activity IC50, SW1990
Procedure, shortened: as §1

H460 = assay: Cell proliferation assay (CellTiter-Glo); assay type: cell-based; conditions: Homo sapiens, NCI-H460; NSCLC; 72 hours, 0.5% fetal bovine serum; read-out: antiproliferative activity IC50, H460
Procedure, shortened: as §1

WiDr = assay: Cell proliferation assay (CellTiter-Glo); assay type: cell-based; conditions: Homo sapiens, Colon, 72 hours, 0.5% fetal bovine serum, read-out: antiproliferative activity IC50, WiDr
Procedure, shortened: as §1

SW403 = assay: Cell proliferation assay (CellTiter-Glo); assay type: cell-based; conditions: Homo sapiens, SW-403; Colon; 72 hours, 0.5% fetal bovine serum; read-out: antiproliferative activity IC50, SW403
Procedure, shortened: as §1

H358 = assay: Cell proliferation assay (CellTiter-Glo); assay type: cell-based; conditions: Homo sapiens, NCI-H358; NSCLC; 72 hours, 0.5% fetal bovine serum; read-out: antiproliferative activity IC50, H358
Procedure, shortened: as §1

CaPan2 = assay: Cell proliferation assay (CellTiter-Glo); assay type: cell-based; conditions: Homo sapiens, Capan-2; Pancreas; 72 hours, 0.5% fetal bovine serum; read-out: antiproliferative activity IC50, CaPan2
Procedure, shortened: as §1

SWI-116 = assay: Cell proliferation assay (CellTiter-Glo); assay type: cell-based; conditions: Colon; 72 hours, 0.5% fetal bovine serum; read-out: antiproliferative activity IC50, SWI-116
Procedure, shortened: as §1

PANC-1 = assay: Cell proliferation assay (CellTiter-Glo); assay type: cell-based; conditions: Homo sapiens, Pancreas, 72 hours, 0.5% fetal bovine serum, read-out: antiproliferative activity IC50, PANC-1
Procedure, shortened: as §1

H292 = assay: Cell proliferation assay (CellTiter-Glo); assay type: cell-based; conditions: Homo sapiens, NCI-H292; NSCLC; 72 hours, 0.5% fetal bovine serum; read-out: antiproliferative activity IC50, H292
Procedure, shortened: as §1

Calu6 = assay: Cell proliferation assay (CellTiter-Glo); assay type: cell-based; conditions: Homo sapiens, Calu-6; NSCLC; 72 hours, 0.5% fetal bovine serum; read-out: antiproliferative activity IC50, Calu6
Procedure, shortened: as §1

SW620 = assay: Cell proliferation assay (CellTiter-Glo); assay type: cell-based; conditions: Homo sapiens, SW-620; Colon; 72 hours, 0.5% fetal bovine serum; read-out: antiproliferative activity IC50, SW620
Procedure, shortened: as §1

A549 = assay: Cell proliferation assay (CellTiter-Glo); assay type: cell-based; conditions: Homo sapiens, NSCLC, 72 hours, 0.5% fetal bovine serum, read-out: antiproliferative activity IC50, A549
Procedure, shortened: as §1

MiaPaca1 = assay: Cell proliferation assay (CellTiter-Glo); assay type: cell-based; conditions: Pancreas; 72 hours, 0.5% fetal bovine serum; read-out: antiproliferative activity IC50, MiaPaca1
Procedure, shortened: as §1

CFPAC-1 = assay: Cell proliferation assay (CellTiter-Glo); assay type: cell-based; conditions: Homo sapiens, Pancreas, 72 hours, 0.5% fetal bovine serum, read-out: antiproliferative activity IC50, CFPAC-1
Procedure, shortened: as §1

HCT116 = assay: Cell proliferation assay (CellTiter-Glo); assay type: cell-based; conditions: Homo sapiens, HCT-116; Colon; 72 hours, 0.5% fetal bovine serum; read-out: antiproliferative activity IC50, HCT116
Procedure, shortened: as §1

[2] = system: HDACs (HeLa cell nuclear extracts); assay: HDAC enzymatic activity, Biomol Color de Lys system; assay type: biochemical; conditions: 1 hour, 25° C.
Procedure, shortened: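 IC50 from sigmoidal fit of developer-terminated fluorescence (ex 350-380/em 440-460 nm). Reaction: 1 h at room temperature (25 °C), HeLa nuclear extract as HDAC source, artificial substrate, buffer of 50 mM Tris/Cl pH 8.0 with 137 mM NaCl, 2.7 mM KCl and 1 mM MgCl2.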

MDA-MB-231 = assay: Cell proliferation assay (CellTiter-Glo); assay type: cell-based; conditions: Homo sapiens, Breast, 72 hours, 0.5% fetal bovine serum, read-out: antiproliferative activity IC50, MDA-MB-231
Procedure, shortened: as §1

CaPan1 = assay: Cell proliferation assay (CellTiter-Glo); assay type: cell-based; conditions: Homo sapiens, CAPAN-1; Pancreas; 72 hours, 0.5% fetal bovine serum; read-out: antiproliferative activity IC50, CaPan1
Procedure, shortened: as §1

LN-Cap = assay: Cell proliferation assay (CellTiter-Glo); assay type: cell-based; conditions: Homo sapiens, LNCaP; Prostate; 72 hours, 0.5% fetal bovine serum; read-out: antiproliferative activity IC50, LN-Cap
Procedure, shortened: as §1

OVCAR-5 = assay: Cell proliferation assay (CellTiter-Glo); assay type: cell-based; conditions: Homo sapiens, Ovarian, 72 hours, 0.5% fetal bovine serum, read-out: antiproliferative activity IC50, OVCAR-5
Procedure, shortened: as §1

PC-3 = assay: Cell proliferation assay (CellTiter-Glo); assay type: cell-based; conditions: Homo sapiens, Prostate, 72 hours, 0.5% fetal bovine serum, read-out: antiproliferative activity IC50, PC-3
Procedure, shortened: as §1

glioblastoma xenografts = conditions: oral dosage; cited from earlier work

Compound	IC50 (H2122)	IC50 (T-84)	IC50 (OPM-2)	IC50 (SW1990)	IC50 (H460)	IC50 (WiDr)	IC50 (SW403)	IC50 (H358)	IC50 (CaPan2)	IC50 (SWI-116)	IC50 (PANC-1)	IC50 (H292)	IC50 (Calu6)	IC50 (SW620)	IC50 (A549)	IC50 (MiaPaca1)	IC50 (CFPAC-1)	IC50 (HCT116)	further results
COc1ccc(-c2nc(N3CCOCC3)c3sc(CN(C)c4ncc(C(=O)NO)cn4)cc3n2)cn1 [Compound 236, N-Hydroxy-2-(((2-(6-methoxypyridin-3-yl)-4-morpholinothieno[3,2-d]pyrimidin-6-yl)methyl)(methyl)amino)pyrimidine-5-carboxamide]	< 0.01 µM	0.01 to 0.1 µM	< 0.01 µM	< 0.01 µM	0.01 to 0.1 µM	0.01 to 0.1 µM	< 0.01 µM	< 0.01 µM	0.01 to 0.1 µM	< 0.01 µM	0.01 to 0.1 µM	< 0.01 µM	0.01 to 0.1 µM	< 0.01 µM	0.01 to 0.1 µM	0.01 to 0.1 µM	0.01 to 0.1 µM	< 0.01 µM	IC50 [1]: 1 to 10 µM; IC50 [2]: < 0.1 µM
CS(=O)(=O)N1CCN(Cc2cc3nc(-c4cccc5[nH]ncc45)nc(N4CCOCC4)c3s2)CC1 [GDC-0941, reference compound]	1 to 10 µM	1 to 10 µM	0.1 to 1 µM	1 to 10 µM	0.1 to 1 µM	0.1 to 1 µM	1 to 10 µM	1 to 10 µM	1 to 10 µM	0.1 to 1 µM	1 to 10 µM	1 to 10 µM	1 to 10 µM	0.1 to 1 µM	0.1 to 1 µM	1 to 10 µM	1 to 10 µM	0.1 to 1 µM	IC50 (MDA-MB-231): > 10 µM; IC50 (CaPan1): 1 to 10 µM; IC50 (LN-Cap): 0.1 to 1 µM; IC50 (OVCAR-5): 0.1 to 1 µM; IC50 (PC-3): 1 to 10 µM; effect in glioblastoma xenografts in vivo (glioblastoma xenografts): tumor suppression
